Results as given in patent US8546608B2, “Proteasome inhibitors and methods of using the same” (Cephalon, Inc., priority 2003, dated 2013).

Experiments:
[1] = molecular target: T1, 20S Human Erythrocyte Proteasome (HEP) (Homo sapiens, UniProt P20618+P28074); assay: Chymotrypsin-like activity of 20S Human Erythrocyte Proteasome (HEP), IC50 determination; format: biochemical; settings: assay of Example C, inhibition of HEP
T1 construct: 20S Human Erythrocyte Proteasome (HEP), purchased from Immatics Biotechnologies Inc; purchased Immatics Biotechnologies Inc., Tübingen, Germany; host or cells: human erythrocytes (natural source)
Outline: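 20S proteasome at 0.2 μg/mL (about 0.6 nM catalytic sites) in 20 mM Tris with 0.04% SDS, preincubated 15 min at 37° C with inhibitor before Suc-LLVY-AMC (100 μM final). AMC fluorescence read in the linear range; triplicates, IC50 from concentration series.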

[2] = molecular target: T2, proteasome in Molt-4 cells (human leukemia) (Homo sapiens, UniProt P20618+P28074); format: cell-based; settings: assay of Example E, inhibition of MOLT4; read-out: MOLT4 (EC50)
T2 sequence (P28074 60-263): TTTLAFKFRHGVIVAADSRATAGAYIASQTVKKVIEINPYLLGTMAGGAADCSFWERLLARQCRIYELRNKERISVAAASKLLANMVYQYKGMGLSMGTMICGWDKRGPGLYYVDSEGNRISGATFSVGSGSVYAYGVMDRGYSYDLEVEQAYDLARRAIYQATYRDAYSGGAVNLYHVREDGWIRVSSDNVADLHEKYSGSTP
T2 sequence (P20618 29-241): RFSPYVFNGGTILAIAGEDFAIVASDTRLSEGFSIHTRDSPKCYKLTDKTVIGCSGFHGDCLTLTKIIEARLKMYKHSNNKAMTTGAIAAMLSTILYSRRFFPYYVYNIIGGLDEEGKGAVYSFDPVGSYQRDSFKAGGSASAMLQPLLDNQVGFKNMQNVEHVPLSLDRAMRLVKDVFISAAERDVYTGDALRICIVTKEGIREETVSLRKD
Outline: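 Intact Molt-4 cells (6×10^6 cells/mL) in HEPES-buffered saline were preincubated with inhibitor 15 min at 37 °C, then given cell-permeable MeOSuc-FLF-AFC at 25 μM final.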

IC50 [1] [nM] | EC50 [2] [nM] | SMILES
< 100 | < 200 | CCCCc1ccc(S(=O)(=O)N[C@@H](CCCNC(=N)N[N+](=O)[O-])C(=O)N[C@@H](CC(C)C)B2O[C@@H]3C[C@@H]4C[C@@H](C4(C)C)[C@]3(C)O2)cc1 [D.4.7, 4-Butyl-benzenesulfonamide, N-[(1S)-1-[[[(1R)-1-[(3aS,4S,6S,7aR)-hexahydro-3a,5,5-trimethyl-4,6-methano-1,3,2-benzodioxaborol-2-yl]-3-methylbutyl]amino]carbonyl]-4-[[imino(nitroamino)methyl]amino]butyl]]
< 100 | < 200 | CCCCCc1ccc(S(=O)(=O)N[C@@H](CCCNC(=N)N[N+](=O)[O-])C(=O)N[C@@H](CC(C)C)B2O[C@@H]3C[C@@H]4C[C@@H](C4(C)C)[C@]3(C)O2)cc1 [D.4.8, 4-Pentyl-benzenesulfonamide, N-[(1S)-1-[[[(1R)-1-[(3aS,4S,6S,7aR)-hexahydro-3a,5,5-trimethyl-4,6-methano-1,3,2-benzodioxaborol-2-yl]-3-methylbutyl]amino]carbonyl]-4-[[imino(nitroamino)methyl]amino]butyl]]
< 100 | < 200 | CC(C)C[C@H](NC(=O)[C@@H](NS(=O)(=O)c1ccc2ccccc2c1)[C@@H](C)O)B1O[C@@H]2C[C@@H]3C[C@@H](C3(C)C)[C@]2(C)O1 [D.4.9, Naphthalene-2-sulfonamide, N-[(1S,2R)-1-[[[(1R)-1-[(3aS,4S,6S,7aR)-hexahydro-3a,5,5-trimethyl-4,6-methano-1,3,2-benzodioxaborol-2-yl]-3-methylbutyl]amino]carbonyl]-2-hydroxypropyl]]
< 10 | < 200 | CCCCCCCNC(=O)N[C@@H](CCCNC(=N)N[N+](=O)[O-])C(=O)N[C@@H](CC(C)C)B1O[C@@H]2C[C@@H]3C[C@@H](C3(C)C)[C@]2(C)O1 [D.6.3, N-[(1S)-1-[[[(1R)-1-[(3aS,4S,6S,7aR)-hexahydro-3a,5,5-trimethyl-4,6-methano-1,3,2-benzodioxaborol-2-yl]-3-methylbutyl]amino]carbonyl]-4-[[imino(nitroamino)methyl]amino]butyl]-N′-heptyl urea]
< 10 | < 200 | CCCCCCCCCCCNC(=O)N[C@@H](CCCNC(=N)N[N+](=O)[O-])C(=O)N[C@@H](CC(C)C)B1O[C@@H]2C[C@@H]3C[C@@H](C3(C)C)[C@]2(C)O1 [D.6.5, N-[(1S)-1-[[[(1R)-1-[(3aS,4S,6S,7aR)-hexahydro-3a,5,5-trimethyl-4,6-methano-1,3,2-benzodioxaborol-2-yl]-3-methylbutyl]amino]carbonyl]-4-[[imino(nitroamino)methyl]amino]butyl]-N′-undecylurea]
< 100 | < 200 | CCCCc1ccc(NC(=O)N[C@@H](CCCNC(=N)N[N+](=O)[O-])C(=O)N[C@@H](CC(C)C)B2O[C@@H]3C[C@@H]4C[C@@H](C4(C)C)[C@]3(C)O2)cc1 [D.6.8, N-[(1S)-1-[[[(1R)-1-[(3aS,4S,6S,7aR)-hexahydro-3a,5,5-trimethyl-4,6-methano-1,3,2-benzodioxaborol-2-yl]-3-methylbutyl]amino]carbonyl]-4-[[imino(nitroamino)methyl]amino]butyl]-N′-(4-butylphenyl) urea]
< 10 | < 200 | CCCCCCCOc1ccc(NC(=O)N[C@@H](CCCNC(=N)N[N+](=O)[O-])C(=O)N[C@@H](CC(C)C)B2O[C@@H]3C[C@@H]4C[C@@H](C4(C)C)[C@]3(C)O2)cc1 [D.6.9, N-[(1S)-1-[[[(1R)-1-[(3aS,4S,6S,7aR)-hexahydro-3a,5,5-trimethyl-4,6-methano-1,3,2-benzodioxaborol-2-yl]-3-methylbutyl]amino]carbonyl]-4-[[imino(nitroamino)methyl]amino]butyl]-N′-(4-heptyloxylphenyl) urea]
< 10 | 2000 to 10000 | CCCCC(C)(C)C(=O)N[C@@H](CCCNC(=N)N[N+](=O)[O-])C(=O)N[C@@H](CC(C)C)B(O)O [D.7.21, Boronic acid, [(1R)-1-[[(2S)-5-[[imino(nitroamino)methyl]amino]-2-[(2,2-dimethylhexanoyl)amino]-1-oxopentyl]amino]-3-methylbutyl]]

The remaining lines, values behind:

SMILES | IC50 [1] [nM] | EC50 [2] [nM]
CCCCOc1ccc(S(=O)(=O)N[C@@H](CCCNC(=N)N[N+](=O)[O-])C(=O)N[C@@H](CC(C)C)B2O[C@@H]3C[C@@H]4C[C@@H](C4(C)C)[C@]3(C)O2)cc1 [D.4.6, 4-Butoxyenzenesulfonamide, N-[(1S)-1-[[[(1R)-1-[(3aS,4S,6S,7aR)-hexahydro-3a,5,5-trimethyl-4,6-methano-1,3,2-benzodioxaborol-2-yl]-3-methylbutyl]amino]carbonyl]-4-[[imino(nitroamino)methyl]amino]butyl]] | < 100 | < 200
COc1ccccc1/C=C/C(=O)N[C@@H](CCCNC(=N)N[N+](=O)[O-])C(=O)N[C@@H](CC(C)C)B(O)O [D.7.1, Boronic acid, [(1R)-1-[[(2S)-5-[[imino(nitroamino)methyl]amino]-2-[[(2E)-3-(2-methoxyphenyl)-1-oxoprop-2-enyl]amino]-1-oxopentyl]amino]-3-methylbutyl]] | < 10 | 2000 to 10000
C/C(=C\c1ccccc1)C(=O)N[C@@H](CCCNC(=N)N[N+](=O)[O-])C(=O)N[C@@H](CC(C)C)B(O)O [D.7.2, Boronic acid, [(1R)-1-[[(2S)-5-[[imino(nitroamino)methyl]amino]-2-[((E)-2-methyl-3-phenylacryl)amino]-1-oxopentyl]amino]-3-methylbutyl]] | < 10 | 2000 to 10000
Cc1ccc(CCCC(=O)N[C@@H](CCCNC(=N)N[N+](=O)[O-])C(=O)N[C@@H](CC(C)C)B(O)O)cc1 [D.7.3, Boronic acid, [(1R)-1-[[(2S)-5-[[imino(nitroamino)methyl]amino]-2-[(4-(4-methylphenyl)butanoyl)amino]-1-oxopentyl]amino]-3-methylbutyl]] | < 10 | 2000 to 10000
CC(C)C[C@H](NC(=O)[C@H](CCCNC(=N)N[N+](=O)[O-])NC(=O)COc1ccc(C(C)C)cc1)B(O)O [D.7.5, Boronic acid, [(1R)-1-[[(2S)-5-[[imino(nitroamino)methyl]amino]-2-[(2-(4-isopropylphenoxy)acetyl)amino]-1-oxopentyl]amino]-3-methylbutyl]] | < 10 | 200 to 2000
CC(C)C[C@H](NC(=O)[C@H](CCCNC(=N)N[N+](=O)[O-])NC(=O)CCCC(=O)c1ccccc1)B(O)O [D.7.6, Boronic acid, [(1R)-1-[[(2S)-5-[[imino(nitroamino)methyl]amino]-2-[(5-oxo-5-phenylpentanoyl)amino]-1-oxopentyl]amino]-3-methylbutyl]] | < 10 | > 10000
CCN(CC)c1ccc(C(=O)N[C@@H](CCCNC(=N)N[N+](=O)[O-])C(=O)N[C@@H](CC(C)C)B(O)O)cc1 [D.7.8, Boronic acid, [(1R)-1-[[(2S)-5-[[imino(nitroamino)methyl]amino]-2-[(4-diethylaminobenzoyl)amino]-1-oxopentyl]amino]-3-methylbutyl]] | < 10 | > 10000
CC(C)C[C@H](NC(=O)[C@H](CCCNC(=N)N[N+](=O)[O-])NC(=O)c1ccc(C(C)C)cc1)B(O)O [D.7.11, Boronic acid, [(1R)-1-[[(2S)-5-[[imino(nitroamino)methyl]amino]-2-[(4-isopropylbenzoyl)amino]-1-oxopentyl]amino]-3-methylbutyl]] | < 10 | 2000 to 10000
Cc1ccc(C(=O)N[C@@H](CCCNC(=N)N[N+](=O)[O-])C(=O)N[C@@H](CC(C)C)B(O)O)s1 [D.7.12, Boronic acid, [(1R)-1-[[(2S)-5-[[imino(nitroamino)methyl]amino]-2-[(5-methylthiophene-2-carbonyl)amino]-1-oxopentyl]amino]-3-methylbutyl]] | < 10 | > 10000
Cc1ccc(C)c(OCCCC(C)(C)C(=O)N[C@@H](CCCNC(=N)N[N+](=O)[O-])C(=O)N[C@@H](CC(C)C)B(O)O)c1 [D.7.17, Boronic acid, [(1R)-1-[[(2S)-5-[[imino(nitroamino)methyl]amino]-2-[[5-(2,5-dimethylphenoxy)-2,2-dimethylpentanoyl]amino]-1-oxopentyl]amino]-3-methylbutyl]] | < 10 | 200 to 2000
CC(C)C[C@H](NC(=O)[C@H](CCCNC(=N)N[N+](=O)[O-])NC(=O)CCCc1cccs1)B(O)O [D.7.19, Boronic acid, [(1R)-1-[[(2S)-5-[[imino(nitroamino)methyl]amino]-2-[[4-(thiophen-2-yl)butanoyl]amino]-1-oxopentyl]amino]-3-methylbutyl]] | < 10 | 2000 to 10000
CC(C)C[C@H](NC(=O)[C@H](CCCNC(=N)N[N+](=O)[O-])NC(=O)CCCCc1ccc(F)cc1)B(O)O [D.7.20, Boronic acid, [(1R)-1-[[(2S)-5-[[imino(nitroamino)methyl]amino]-2-[[5-(4-fluorophenyl)pentanoyl]amino]-1-oxopentyl]amino]-3-methylbutyl]] | < 10 | 2000 to 10000
